# Source: patent US9006451B1, “2-anilinonicotinyl based chalcones useful as potential anticancer agents and process for preparation thereof” (Council of Scientific and Industrial Research, priority 2013, dated 2015)
# What was measured:
# Assay type in all cases: cell-based
# A549/ATCC = experiment: NCI 60 human tumor cell line screen (SRB): A549/ATCC; conditions: Non-small cell lung, 48 hours, read-out: GI50 values (μM conc.)
# Method: (§1) The in vitro anticancer activity studies for these chalcone analogues were carried out at the National Cancer Institute, USA.
# (§2) The chalcone compounds have been tested at NCI, USA, against sixty human tumor cell lines derived from nine cancer types (leukemia, non-small cell lung cancer, colon cancer, CNS cancer, melanoma cancer, ovarian cancer, renal cancer, prostate cancer and breast cancer). For these compounds results are expressed as growth inhibition (GI50) values as per NCI protocol.
# (§3) We describe here the development and implementation of a pilot-scale, in vitro, anticancer drug screen utilizing a panel of 60 human tumor cell lines organized into subpanels representing leukemia, melanoma, and cancers of the lung, colon, kidney, ovary, and central nervous system. The ultimate goal of this disease-oriented screen is to facilitate the discovery of new compounds with potential cell line-specific and/or subpanel-specific antitumor activity. In the current screening protocol, each cell line is inoculated onto microtiter plates, then preincubated for 28 hours. Subsequently, test agents are added in five 10-fold dilutions and the culture is incubated for an additional 48 hours. For each test agent, a dose-response profile is generated. End-point determinations of the cell viability or cell growth are performed by in situ fixation of cells, followed by staining with a protein-binding dye, sulforhodamine B (SRB). The SRB binds to the basic amino acids of cellular macromolecules; the solubilized stain is measured spectrophotometrically to determine relative cell growth or viability in treated and untreated cells.
# EKVX = experiment: NCI 60 human tumor cell line screen (SRB): EKVX; conditions: Non-small cell lung, 48 hours, read-out: GI50 values (μM conc.)
# Method: as §1, §2, §3
# HOP-62 = experiment: NCI 60 human tumor cell line screen (SRB): HOP-62; conditions: HOP-62, Non-small cell lung, 48 hours, read-out: GI50 values (μM conc.)
# Method: as §1, §2, §3
# HOP-92 = experiment: NCI 60 human tumor cell line screen (SRB): HOP-92; conditions: HOP-92, Non-small cell lung, 48 hours, read-out: GI50 values (μM conc.)
# Method: as §1, §2, §3
# NCI-H226 = experiment: NCI 60 human tumor cell line screen (SRB): NCI-H226; conditions: NCI-H226, Non-small cell lung, 48 hours, read-out: GI50 values (μM conc.)
# Method: as §1, §2, §3
# COLO-205 = experiment: NCI 60 human tumor cell line screen (SRB): COLO-205; conditions: COLO-205, Colon, 48 hours, read-out: GI50 values (μM conc.)
# Method: as §1, §2, §3
# HCC-2998 = experiment: NCI 60 human tumor cell line screen (SRB): HCC-2998; conditions: HCC-2998, Colon, 48 hours, read-out: GI50 values (μM conc.)
# Method: as §1, §2, §3
# HCT-15 = experiment: NCI 60 human tumor cell line screen (SRB): HCT-15; conditions: HCT-15, Colon, 48 hours, read-out: GI50 values (μM conc.)
# Method: as §1, §2, §3
# SF-539 = experiment: NCI 60 human tumor cell line screen (SRB): SF-539; conditions: SF-539, CNS, 48 hours, read-out: GI50 values (μM conc.)
# Method: as §1, §2, §3
# SNB-75 = experiment: NCI 60 human tumor cell line screen (SRB): SNB-75; conditions: SNB-75, CNS, 48 hours, read-out: GI50 values (μM conc.)
# Method: as §1, §2, §3
# U251 = experiment: NCI 60 human tumor cell line screen (SRB): U251; conditions: U-251, U251, CNS, 48 hours, read-out: GI50 values (μM conc.)
# Method: as §1, §2, §3
# LOX IMVI = experiment: NCI 60 human tumor cell line screen (SRB): LOX IMVI; conditions: Melanoma, 48 hours, read-out: GI50 values (μM conc.)
# Method: as §1, §2, §3
# M14 = experiment: NCI 60 human tumor cell line screen (SRB): M14; conditions: M14, Melanoma, 48 hours, read-out: GI50 values (μM conc.)
# Method: as §1, §2, §3
# MDA-MB-435 = experiment: NCI 60 human tumor cell line screen (SRB): MDA-MB-435; conditions: MDA-MB-435, Melanoma, 48 hours, read-out: GI50 values (μM conc.)
# Method: as §1, §2, §3
# SK-MEL-2 = experiment: NCI 60 human tumor cell line screen (SRB): SK-MEL-2; conditions: SK-MEL-2, Melanoma, 48 hours, read-out: GI50 values (μM conc.)
# Method: as §1, §2, §3
# SK-MEL-28 = experiment: NCI 60 human tumor cell line screen (SRB): SK-MEL-28; conditions: SK-MEL-28, Melanoma, 48 hours, read-out: GI50 values (μM conc.)
# Method: as §1, §2, §3
# SK-MEL-5 = experiment: NCI 60 human tumor cell line screen (SRB): SK-MEL-5; conditions: SK-MEL-5, Melanoma, 48 hours, read-out: GI50 values (μM conc.)
# Method: as §1, §2, §3
# OVCAR-5 = experiment: NCI 60 human tumor cell line screen (SRB): OVCAR-5; conditions: OVCAR-5, Ovarian, 48 hours, read-out: GI50 values (μM conc.)
# Method: as §1, §2, §3
# OVCAR-8 = experiment: NCI 60 human tumor cell line screen (SRB): OVCAR-8; conditions: OVCAR-8, Ovarian, 48 hours, read-out: GI50 values (μM conc.)
# Method: as §1, §2, §3
# NCI/ADR-RES = experiment: NCI 60 human tumor cell line screen (SRB): NCI/ADR-RES; conditions: Ovarian, 48 hours, read-out: GI50 values (μM conc.)
# Method: as §1, §2, §3
# 786-0 = experiment: NCI 60 human tumor cell line screen (SRB): 786-0; conditions: 786-0, Renal, 48 hours, read-out: GI50 values (μM conc.)
# Method: as §1, §2, §3
# A498 = experiment: NCI 60 human tumor cell line screen (SRB): A498; conditions: A498, Renal, 48 hours, read-out: GI50 values (μM conc.)
# Method: as §1, §2, §3
# CAKI-1 = experiment: NCI 60 human tumor cell line screen (SRB): CAKI-1; conditions: CAKI-1, Renal, 48 hours, read-out: GI50 values (μM conc.)
# Method: as §1, §2, §3
# SN12C = experiment: NCI 60 human tumor cell line screen (SRB): SN12C; conditions: Renal, 48 hours, read-out: GI50 values (μM conc.)
# Method: as §1, §2, §3
# TK-10 = experiment: NCI 60 human tumor cell line screen (SRB): TK-10; conditions: TK-10, Renal, 48 hours, read-out: GI50 values (μM conc.)
# Method: as §1, §2, §3
# UO-31 = experiment: NCI 60 human tumor cell line screen (SRB): UO-31; conditions: UO-31, Renal, 48 hours, read-out: GI50 values (μM conc.)
# Method: as §1, §2, §3
# DU-145 = experiment: NCI 60 human tumor cell line screen (SRB): DU-145; conditions: DU-145, Prostate, 48 hours, read-out: GI50 values (μM conc.)
# Method: as §1, §2, §3
# HS 578T = experiment: NCI 60 human tumor cell line screen (SRB): HS 578T; conditions: Breast, 48 hours, read-out: GI50 values (μM conc.)
# Method: as §1, §2, §3
# BT-549 = experiment: NCI 60 human tumor cell line screen (SRB): BT-549; conditions: BT-549, Breast, 48 hours, read-out: GI50 values (μM conc.)
# Method: as §1, §2, §3
SMILES,GI50 (EKVX),GI50 (HOP-62),GI50 (HOP-92),GI50 (NCI-H226),GI50 (COLO-205),GI50 (HCC-2998),GI50 (HCT-15),GI50 (SF-539),GI50 (SNB-75),GI50 (U251),GI50 (LOX IMVI),GI50 (M14),GI50 (MDA-MB-435),GI50 (SK-MEL-2),GI50 (SK-MEL-28),GI50 (SK-MEL-5),GI50 (OVCAR-5),GI50 (OVCAR-8),GI50 (NCI/ADR-RES),GI50 (786-0),other results
"COc1cc(C(=O)/C=C/c2cccnc2Nc2ccccc2)cc(OC)c1OC [6a, (E)-3-(2-(Phenylamino)pyridin-3-yl)-1-(3,4,5-trimethoxyphenyl)prop-2-en-1-one]",1.61 µM,0.65 µM,0.39 µM,1.23 µM,1.29 µM,1.18 µM,0.74 µM,1.65 µM,1.13 µM,1.12 µM,0.49 µM,1.5 µM,0.63 µM,1.66 µM,1.58 µM,1.34 µM,1.54 µM,1.27 µM,1.03 µM,1.29 µM,GI50 (A549/ATCC): 1.3 µM; GI50 (A498): 1.42 µM; GI50 (CAKI-1): 1.16 µM; GI50 (SN12C): 1.21 µM; GI50 (TK-10): 1.82 µM; GI50 (UO-31): 1.19 µM; GI50 (DU-145): 0.72 µM; GI50 (HS 578T): 2.15 µM; GI50 (BT-549): 1.26 µM
"COc1cc(Nc2ncccc2/C=C/C(=O)c2cc(OC)c(OC)c(OC)c2)cc(OC)c1OC [6v, (E)-1-(3,4,5-Trimethoxyphenyl)-3-(2-(3,4,5-trimethoxyphenylamino)pyridin-3-yl)prop-2-en-1-one]",7.55 µM,12.1 µM,0.94 µM,10.8 µM,4.44 µM,7.74 µM,5.02 µM,12.2 µM,4.12 µM,4.1 µM,4.51 µM,8.99 µM,5.63 µM,8 µM,5.43 µM,4.17 µM,16.3 µM,6.7 µM,4.44 µM,5.98 µM,GI50 (A549/ATCC): 4.21 µM; GI50 (A498): 2.64 µM; GI50 (CAKI-1): 4.01 µM; GI50 (SN12C): 5.1 µM; GI50 (TK-10): 1.55 µM; GI50 (UO-31): 5.09 µM; GI50 (DU-145): 6.22 µM; GI50 (HS 578T): 13.2 µM; GI50 (BT-549): 14.3 µM
"COc1ccc(Nc2ncccc2/C=C/C(=O)c2cc(OC)c(OC)c(OC)c2)cc1 [6h, (E)-3-(2-(4-Methoxyphenylamino)pyridin-3-yl)-1-(3,4,5-trimethoxyphenyl)prop-2-en-1-one]",1.8 µM,1.78 µM,1.59 µM,1.37 µM,1.69 µM,1.68 µM,1.66 µM,2.04 µM,1.15 µM,1.27 µM,1.23 µM,1.65 µM,1.46 µM,1.47 µM,1.37 µM,1.39 µM,1.97 µM,1.56 µM,2.23 µM,1.69 µM,GI50 (A498): 3.19 µM; GI50 (CAKI-1): 1.52 µM; GI50 (SN12C): 1.56 µM; GI50 (UO-31): 1.12 µM; GI50 (DU-145): 1.59 µM; GI50 (HS 578T): 2.68 µM; GI50 (BT-549): 1.58 µM
"COc1ccc(C(=O)/C=C/c2cccnc2Nc2cc(OC)c(OC)c(OC)c2)cc1 [6z, (E)-1-(4-Methoxyphenyl)-3-(2-(3,4,5-trimethoxyphenylamino)pyridin-3-yl)prop-2-en-1-one]",10.8 µM,2.18 µM,2.4 µM,1.73 µM,1.54 µM,1.42 µM,0.91 µM,1.81 µM,2.44 µM,1.27 µM,1.12 µM,2.55 µM,0.74 µM,7.04 µM,3.72 µM,2.41 µM,1.95 µM,2.2 µM,1.38 µM,1.31 µM,GI50 (A549/ATCC): 2.15 µM; GI50 (A498): 4.28 µM; GI50 (CAKI-1): 2.26 µM; GI50 (SN12C): 1.91 µM; GI50 (TK-10): 2.06 µM; GI50 (UO-31): 1.44 µM; GI50 (DU-145): 2.59 µM; GI50 (HS 578T): 6.38 µM; GI50 (BT-549): 2.41 µM
